In paper PMC3359160, “Dipeptidyl peptidase IV, aminopeptidase N and DPIV/APN-like proteases in cerebral ischemia” (Journal of Neuroinflammation, 2012):

Key:
[1] = system: eMCAO-induced infarct volume; assay: Effect of protease inhibitors on infarct volumes after eMCAO (transient focal cerebral ischemia); format: in vivo, male Sprague-Dawley rats; conditions: rat, icv f.c. 10 μM; for effect on eMCAO-induced infarct volumes in ipsilateral cortices / effect on striatal lesion sizes: 7 days post eMCAO; for reduction of eMCAO-induced infarct volume in ipsilateral cortex compared to vehicle: mean ± S.E.M.
Procedure: Studies were performed on male Sprague-Dawley rats (250-280 g) obtained from Harlan Winkelmann (Borchen, Germany). Animals were maintained under constant environmental conditions with an ambient temperature of 21 ± 2°C and relative humidity of 40%. They were housed with a 12-h light-dark cycle, food and water were given ad libitum. […] Animals were anesthetized with halothane in a mixture of nitrous oxide/oxygen (70:30) and maintained with 2-3% halothane during the following procedures: rats were placed in a Kopf stereotaxic frame and further anesthetized via a nose cone. For the induction of eMCAO, a burr hole (1 mm diameter) was drilled into the skull (coordinates: anterior 0.50 mm from bregma, lateral 5.2 mm to […]). After careful opening of the dura, a 29-gauge cannula was lowered 7.5 mm below the dura according to the rat brain atlas of Paxinos and Watson. […] After further 5 min, the cannula was slowly withdrawn. Throughout the operation procedure, rats were kept at 37 ± 0.5°C using a thermostatically controlled heating blanket attached to a rectal thermometer. The animals were then placed under a heating lamp to maintain normothermia until recovery. In order to perform the icv application of different protease inhibitors under halothane anesthesia, a second burr hole was drilled into the skull (coordinates: posterior 0.80 mm from bregma, lateral 1.5 mm to […]). Then, a 29-gauge cannula was lowered 4.5 mm below the dura. The icv injection of IPC1755 (2 μl of a 10 mmol/l PBS/DMSO solution, pH 7.4, f.c. 10 μM) was performed according to one of the following time schedules; […] According to legal requirements of the German animal law, animals were kept under anesthesia during each drug injection. Control rats were treated in the same way, except that the corresponding vehicle solution instead of the drug was injected. Thus, potential protective effects of halothane can be excluded. Rats were maintained at 37 ± 0.5°C throughout the operation procedures. In parallel, the body temperature was monitored using a rectal temperature sensor. Subsequently, the animals were placed into an incubator to maintain normothermia until recovery from anesthesia and then returned into their home cage. After a survival time of 7 days after eMCAO, animals were anesthetized by intraperitonial injection of pentobarbital and transcardially perfusion-fixed with saline followed by 4% paraformaldehyde in 0.1 M PBS (pH 7.4). Brains were then removed carefully, post-fixed in the same fixative for 2 h, and placed in a rodent brain matrix (rat, ASI Instruments, Warren, MI, USA). 1-mm coronal brain slices were cut with a razor blade at 14 predetermined anterior-posterior levels. After cryoprotection in 30% sucrose, slices were rapidly frozen in isopentane and stored at -80°C. Four to five cryostat sections (30 μm) from each brain slice were cut in a cryo microtome and stained with toluidine blue. The extent of cortical and striatal damage following ischemic injury was documented with microphotographic images from Nissl-stained slices showing the anterior-posterior level according to the brain atlas of Paxinos and Watson. The volumes of cortical and striatal infarct lesions were measured at eight predetermined anterior-posterior levels by an operator blinded to the group composition. Three-dimensional lesion sizes were calculated by integration of two-dimensional lesion sizes at each stereotactic level and the distances between the various levels. Image analysis was performed with an Eclipse TE 3000 microscope (Nikon, Düsseldorf, Germany), equipped with a 4x objective, and the Lucia software package (Version 4.2.1., Nikon). Data were statistically analyzed by non-paired Student's t-test and given as mean ± S.E.M.

[2] = system: DP8/9; parameters: method as in Patent EP09169269; conditions: ref Patent EP09169269; cited from earlier work
[3] = system: DPII; parameters: method as in Patent EP09169269; conditions: ref Patent EP09169269; cited from earlier work
[4] = system: mononuclear cells; parameters: method as in Patent EP09169269; conditions: ref Patent EP09169269; read-out: IC50, proliferation of mononuclear cells; cited from earlier work
[5] = system: cAAP; parameters: method as in Patent EP09169269; conditions: ref Patent EP09169269; cited from earlier work
[6] = system: APN; parameters: method as in Patent EP09169269; conditions: ref Patent EP09169269; cited from earlier work
[7] = system: T cells; parameters: method as in Patent EP09169269; conditions: ref Patent EP09169269; read-out: IC50, proliferation of T cells; cited from earlier work
[8] = system: DPIV; parameters: method as in Patent EP09169269; conditions: ref Patent EP09169269; cited from earlier work
[9] = in parallel to eMCAO and 6 h and 24 h post insult
[10] = in parallel to eMCAO and 6 h and 24 h post insult, analyzed 7 days post eMCAO

Q: What does the source list for CC[C@@H](C)[C@H](N)C(=O)N1Cc2ccccc2C1.Cl [selective DP8/9 inhibitor, (2S,3R)-2-(2-amino-3-methyl-1-oxopentan-1-yl)-1,3-dihydro-2H-isoindole hydrochloride]?
A: effect on eMCAO-induced infarct volumes in ipsilateral cortices [1, 9]: did not decrease; effect on striatal lesion sizes [1, 9]: neither sitagliptin nor selective DPII or DP8/9 inhibition affected

Q: Which results are given for CCCCCCCCCCCCCCCC(=O)OC(C(=O)NCC(C)(C)CNC(=O)CC(N)Cc1cc(F)ccc1F)C(N)Cc1ccccc1 (stereo not shown) [IPC1755]?
A: IC50 [2]: 85 µM; IC50 [3]: 166 µM; IC50 [4]: 36 µM; IC50 [5]: 0.02 µM; IC50 [6]: 0.03 µM; effect on striatal lesion sizes ([1]; all three time schedules (Figure 7C columns b-d)): did not affect striatal lesion sizes; cortical lesion size, % of control damage of vehicle-treated animals ([1]; exclusively 6 and 24 h post eMCAO, analyzed 7 days post eMCAO): 107.5 ± 12.8%; reduction of eMCAO-induced infarct volume in ipsilateral cortex compared to vehicle [1, 10]: 48.8 ± 7.9%; IC50 [7]: 34 µM; IC50 [8]: 0.06 µM

Q: With N[C@@H](CC(=O)N1CCn2c(nnc2C(F)(F)F)C1)Cc1cc(F)c(F)cc1F [sitagliptin, (R)-3-Amino-1-[3-(trifluormethyl)-5,6,7,8-tetrahydro[1,2, 4]triazol[4,3-a]pyrazin-7-yl]-4-(2,4,5-trifluorphenyl)butan-1-on] as the molecule, how does the “effect on striatal lesion sizes” value [1, 9] read?
A: neither sitagliptin nor selective DPII or DP8/9 inhibition affected

Q: And the “reduction of eMCAO-induced infarct volume in ipsilateral cortex compared to vehicle” value [1, 10]?
A: 21.1 ± 5.8%

Q: Which results are given for NCC[C@H](N)C(=O)N1CCCCC1 [selective DPII inhibitor, L-2,4-Diaminobutyrylpiperidinamide]?
A: effect on eMCAO-induced infarct volumes in ipsilateral cortices [1, 9]: did not decrease; effect on striatal lesion sizes [1, 9]: neither sitagliptin nor selective DPII or DP8/9 inhibition affected
